Test results taken from US8178136B2, “Composition based on vegetal extracts of Ajuga reptans for preventing hair loss, stimulating the growth of hair, regulating the production of sebum” (Giuliani S.p.A., priority 2005, dated 2012).
Values joined by “and” are separate entries in the source; they are usually repeats but may differ in a detail not shown here. Equal values may be shown once.

Tested on: 5α-reductase
Test: in-vivo inhibitory activity of 5α-reductase: haematic levels of DHT in rats after oral administration
Set-up: species or system rat
Conditions: for Seric concentrations of DHT: individual rat values; for Seric concentrations of DHT, average: basal average 335.7
Experimental: A study was carried out to determine in-vivo the inhibitory activity of 5α-reductase on the part of a total extract deriving from a cellular culture of Ajuga reptans.
The study was effected by determining the haematic levels of DHT (5α-dihydrotestosterone) on rats after administration of the extract being studied.
For the in-vivo study of the inhibition of 5α-reductase, Sprague-Dawley adult male rats were used (Charles River Italia) having a body weight of 200-250 g.
The animals were stalled under standard conditions: at a temperature of 22/23° C., with 65% relative humidity, exposing them to illumination cycles of 12 h light/12 h darkness.
A standard diet in the form of pellets (standard diet, Charles River) was administered to the rats, with water ad libitum
The experimentation was carried out according to protocols authorized by the Committee for the Care and Use of Animals of the Università degli Studi of Milan. Tests were carried out on the rats, effected from the retro-orbital plexus, immediately before the pharmalogical treatment (t0) and subsequently at a distance of 3, 6 and 8 hours after administration.
The administration of the substances being studied was effected orally.
In correspondence with each test on the animals treated, tests were also effected on non-treated animals to determine the basal analyte level. Both testosterone and DHT are in fact characterized by a significant circadian fluctuation.
The plasma obtained from the whole blood treated with EDTA after centrifugation was preserved at −20° C. until dosage.
The plasmatic concentrations of DHT (dihydrotestosterone) were determined with a commercial kit (DSL, Chematil, Angri, SA) after extraction of the samples.
All the samples of an experimental set were dosed together to reduce the inter-analytic variability.

With CC(C)(C)NC(=O)[C@H]1CC[C@H]2[C@@H]3CC[C@H]4NC(=O)C=C[C@]4(C)[C@H]3CC[C@]12C [Finasteride] the “Seric concentrations of DHT” value (Finasteride 1 mg oral, 3 hrs) was 569.6 pg/mL and 404.6 pg/mL and 530.0 pg/mL and 298.1 pg/mL and 505.3 pg/mL and 300.0 pg/mL, the “Seric concentrations of DHT, average” value (Finasteride 1 mg oral, 3 hrs, n=6) was 434.6 pg/mL and the “Seric concentrations of DHT” value (Finasteride 1 mg oral, 6 hrs) was 592.1 pg/mL and 148.5 pg/mL and 420.1 pg/mL and 404.1 pg/mL and 565.0 pg/mL and 379.6 pg/mL. For the same molecule, the “Seric concentrations of DHT, average” value (Finasteride 1 mg oral, 6 hrs, n=6) was 418.2 pg/mL, the “Seric concentrations of DHT” value (Finasteride 1 mg oral, 8 hrs) was 530.1 pg/mL and 173.1 pg/mL and 110.0 pg/mL and 706.7 pg/mL and 140.1 pg/mL and 503.9 pg/mL and the “Seric concentrations of DHT, average” value (Finasteride 1 mg oral, 8 hrs, n=6) was 360.6 pg/mL. The “Seric concentrations of DHT” value (Finasteride 5 mg oral, 3 hrs) was 641.0 pg/mL and 924.2 pg/mL and 569.4 pg/mL and 217.1 pg/mL and 618.6 pg/mL and 151.2 pg/mL, the “Seric concentrations of DHT, average” value (Finasteride 5 mg oral, 3 hrs, n=6) was 520.2 pg/mL and the “Seric concentrations of DHT” value (Finasteride 5 mg oral, 6 hrs) was 49.7 pg/mL and 128.3 pg/mL and 176.9 pg/mL and 81.2 pg/mL and 205.2 pg/mL and 103.6 pg/mL and 54.4 pg/mL and 60.7 pg/mL. For the same molecule, the “Seric concentrations of DHT, average” value (Finasteride 5 mg oral, 6 hrs, n=8) was 107.5 pg/mL, the “Seric concentrations of DHT” value (Finasteride 5 mg oral, 8 hrs) was 576.6 pg/mL and 250.9 pg/mL and 300.1 pg/mL and 201.6 pg/mL and 108.8 pg/mL and 745.4 pg/mL and the “Seric concentrations of DHT, average” value (Finasteride 5 mg oral, 8 hrs, n=6) was 363.9 pg/mL. For the same molecule, the “trend of the concentration of DHT after administration” value (rats, oral, vs. basal levels) was 8 hours after treatment, the DHT rises returning to the basal levels.
